Experiments:
[1] = test system: Phytophthora infestans—PHYTIN; format: in vivo; settings: 100 ppm spray, 1-day protectant (1DP), tomatoes cultivar Rutgers
[2] = test system: Leptosphaeria nodorum—LEPTNO; test: Glume blotch of wheat, 1-day protectant whole plant test; format: in vivo; settings: 100 ppm spray, 1-day protectant (1DP), wheat cultivar Monon
[3] = test system: Puccinia recondita—PUCCRT; test: Brown rust of wheat, 1-day protectant whole plant test; format: in vivo; settings: 100 ppm spray, 1-day protectant (1DP), wheat cultivar Monon
[4] = test system: Erysiphe graminis—ERYSGT; test: Powdery Mildew of Wheat, 1-day protectant whole plant test; format: in vivo; settings: 100 ppm spray, 1-day protectant (1DP), wheat cultivar Monon

CNC(=O)C(=NOC)c1ccccc1COc1ncc(Sc2ccccc2)cc1Cl [Compound 3, 2-Methoxyimino-N-methyl-[2-(3-chloro-5-phenylthio-2-pyridyloxy)methylphenyl]acetamide]
PHYTIN percent control of the plant disease compared with untreated, inoculated plants [1]: 90%
LEPTNO percent control of the plant disease compared with untreated, inoculated plants [2]: 90%
PUCCRT percent control of the plant disease compared with untreated, inoculated plants [3]: 98%
melting point: 84 to 86 °C
ERYSGT percent control of the plant disease compared with untreated, inoculated plants [4]: 85%

CNC(=O)C(=NOC)c1ccccc1COc1nc(Sc2ccc(C(F)(F)F)cc2)c(Cl)cc1Cl [Compound 13]
PHYTIN percent control of the plant disease compared with untreated, inoculated plants [1]: 0%
LEPTNO percent control of the plant disease compared with untreated, inoculated plants [2]: 0%
PUCCRT percent control of the plant disease compared with untreated, inoculated plants [3]: 98%
ERYSGT percent control of the plant disease compared with untreated, inoculated plants [4]: 98%

CCc1ccccc1Sc1cccc(OCc2ccccc2C(=NOC)C(=O)NC)n1 [Compound 33]
PHYTIN percent control of the plant disease compared with untreated, inoculated plants [1]: 100%
LEPTNO percent control of the plant disease compared with untreated, inoculated plants [2]: 98%
PUCCRT percent control of the plant disease compared with untreated, inoculated plants [3]: 100%
ERYSGT percent control of the plant disease compared with untreated, inoculated plants [4]: 92%

CNC(=O)C(=NOC)c1ccccc1COc1cccc(Sc2ccccc2C(F)(F)F)n1 [Compound 29]
PHYTIN percent control of the plant disease compared with untreated, inoculated plants [1]: 100%
LEPTNO percent control of the plant disease compared with untreated, inoculated plants [2]: 78%
PUCCRT percent control of the plant disease compared with untreated, inoculated plants [3]: 100%
ERYSGT percent control of the plant disease compared with untreated, inoculated plants [4]: 98%

CNC(=O)C(=NOC)c1ccccc1COc1cccc(Sc2cccc(Cl)c2)n1 [Compound 23]
PHYTIN percent control of the plant disease compared with untreated, inoculated plants [1]: 100%
LEPTNO percent control of the plant disease compared with untreated, inoculated plants [2]: 78%
PUCCRT percent control of the plant disease compared with untreated, inoculated plants [3]: 100%
ERYSGT percent control of the plant disease compared with untreated, inoculated plants [4]: 98%

CNC(=O)C(=NOC)c1ccccc1COc1cccc(Sc2ccc(Cl)cc2)n1 [Compound 20]
PHYTIN percent control of the plant disease compared with untreated, inoculated plants [1]: 100%
LEPTNO percent control of the plant disease compared with untreated, inoculated plants [2]: 98%
PUCCRT percent control of the plant disease compared with untreated, inoculated plants [3]: 100%
ERYSGT percent control of the plant disease compared with untreated, inoculated plants [4]: 92%

CNC(=O)C(=NOC)c1cccc(Cl)c1COc1ccc(Sc2cccc(Cl)c2)cn1 [Compound 8, 2-Methoxyimino-N-methyl-{3-chloro-2-[5-(3-chlorophenyl)thio-2-pyridyloxy]methylphenyl}acetamide]
PHYTIN percent control of the plant disease compared with untreated, inoculated plants [1]: 100%
LEPTNO percent control of the plant disease compared with untreated, inoculated plants [2]: 98%
PUCCRT percent control of the plant disease compared with untreated, inoculated plants [3]: 98%
ERYSGT percent control of the plant disease compared with untreated, inoculated plants [4]: 98%

CNC(=O)C(=NOC)c1ccccc1COc1cccc(Sc2cccc(C(F)(F)F)c2)n1 [Compound 22]
PHYTIN percent control of the plant disease compared with untreated, inoculated plants [1]: 100%
LEPTNO percent control of the plant disease compared with untreated, inoculated plants [2]: 78%
PUCCRT percent control of the plant disease compared with untreated, inoculated plants [3]: 98%
ERYSGT percent control of the plant disease compared with untreated, inoculated plants [4]: 92%

CNC(=O)C(=NOC)c1ccccc1COc1cccc(Sc2ccc(Cl)cc2C)n1 [Compound 28]
PHYTIN percent control of the plant disease compared with untreated, inoculated plants [1]: 100%
LEPTNO percent control of the plant disease compared with untreated, inoculated plants [2]: 98%
PUCCRT percent control of the plant disease compared with untreated, inoculated plants [3]: 100%
ERYSGT percent control of the plant disease compared with untreated, inoculated plants [4]: 98%

CNC(=O)C(=NOC)c1cccc(Cl)c1COc1ccc(Sc2cccc(C)c2)cn1 [Compound 7, 2-Methoxyimino-N-methyl-{3-chloro-2-[5-(3-methylphenyl)thio-2-pyridyloxy]methylphenyl}acetamide]
PHYTIN percent control of the plant disease compared with untreated, inoculated plants [1]: 100%
LEPTNO percent control of the plant disease compared with untreated, inoculated plants [2]: 98%
PUCCRT percent control of the plant disease compared with untreated, inoculated plants [3]: 100%
ERYSGT percent control of the plant disease compared with untreated, inoculated plants [4]: 98%

CNC(=O)C(=NOC)c1ccccc1COc1cccc(Sc2ccccc2Cl)n1 [Compound 25]
PHYTIN percent control of the plant disease compared with untreated, inoculated plants [1]: 94%
LEPTNO percent control of the plant disease compared with untreated, inoculated plants [2]: 98%
PUCCRT percent control of the plant disease compared with untreated, inoculated plants [3]: 100%
ERYSGT percent control of the plant disease compared with untreated, inoculated plants [4]: 77%

CNC(=O)C(=NOC)c1cccc(F)c1COc1cccc(Sc2ccccc2)n1 [Compound 34]
PHYTIN percent control of the plant disease compared with untreated, inoculated plants [1]: 94%
LEPTNO percent control of the plant disease compared with untreated, inoculated plants [2]: 98%
PUCCRT percent control of the plant disease compared with untreated, inoculated plants [3]: 100%
ERYSGT percent control of the plant disease compared with untreated, inoculated plants [4]: 85%

CNC(=O)C(=NOC)c1ccccc1COc1nc(Sc2ccccc2)c(F)cc1F [Compound 32]
PHYTIN percent control of the plant disease compared with untreated, inoculated plants [1]: 100%
LEPTNO percent control of the plant disease compared with untreated, inoculated plants [2]: 98%
PUCCRT percent control of the plant disease compared with untreated, inoculated plants [3]: 100%
ERYSGT percent control of the plant disease compared with untreated, inoculated plants [4]: 77%

CNC(=O)C(=NOC)c1ccccc1COc1cccc(Sc2cccc3ccccc23)n1 [Compound 31]
PHYTIN percent control of the plant disease compared with untreated, inoculated plants [1]: 100%
LEPTNO percent control of the plant disease compared with untreated, inoculated plants [2]: 98%
PUCCRT percent control of the plant disease compared with untreated, inoculated plants [3]: 100%
ERYSGT percent control of the plant disease compared with untreated, inoculated plants [4]: 92%

CNC(=O)C(=NOC)c1ccccc1COc1nc(Sc2ccc(Cl)cc2)c(Cl)cc1Cl [Compound 11]
PHYTIN percent control of the plant disease compared with untreated, inoculated plants [1]: 44%
LEPTNO percent control of the plant disease compared with untreated, inoculated plants [2]: 0%
PUCCRT percent control of the plant disease compared with untreated, inoculated plants [3]: 89%
ERYSGT percent control of the plant disease compared with untreated, inoculated plants [4]: 69%

CNC(=O)C(=NOC)c1ccccc1COc1cccc(Sc2ccc(Br)cc2)n1 [Compound 19]
PHYTIN percent control of the plant disease compared with untreated, inoculated plants [1]: 100%
LEPTNO percent control of the plant disease compared with untreated, inoculated plants [2]: 98%
PUCCRT percent control of the plant disease compared with untreated, inoculated plants [3]: 100%
ERYSGT percent control of the plant disease compared with untreated, inoculated plants [4]: 98%

CNC(=O)C(=NOC)c1ccccc1COc1cccc(Sc2cccc(C)c2)n1 [Compound 16]
PHYTIN percent control of the plant disease compared with untreated, inoculated plants [1]: 100%
LEPTNO percent control of the plant disease compared with untreated, inoculated plants [2]: 89%
PUCCRT percent control of the plant disease compared with untreated, inoculated plants [3]: 100%
ERYSGT percent control of the plant disease compared with untreated, inoculated plants [4]: 92%

CNC(=O)C(=NOC)c1ccccc1COc1cccc(Sc2ccccc2C)n1 [Compound 17]
PHYTIN percent control of the plant disease compared with untreated, inoculated plants [1]: 100%
LEPTNO percent control of the plant disease compared with untreated, inoculated plants [2]: 98%
PUCCRT percent control of the plant disease compared with untreated, inoculated plants [3]: 100%
ERYSGT percent control of the plant disease compared with untreated, inoculated plants [4]: 92%

CNC(=O)C(=NOC)c1ccccc1COc1ccc(C(F)(F)F)c(Sc2ccccc2)n1 [Compound 12]
PHYTIN percent control of the plant disease compared with untreated, inoculated plants [1]: 94%
LEPTNO percent control of the plant disease compared with untreated, inoculated plants [2]: 78%
PUCCRT percent control of the plant disease compared with untreated, inoculated plants [3]: 100%
ERYSGT percent control of the plant disease compared with untreated, inoculated plants [4]: 98%

CNC(=O)C(=NOC)c1ccccc1COc1cccc(Sc2cccc(F)c2)n1 [Compound 30]
PHYTIN percent control of the plant disease compared with untreated, inoculated plants [1]: 100%
LEPTNO percent control of the plant disease compared with untreated, inoculated plants [2]: 98%
PUCCRT percent control of the plant disease compared with untreated, inoculated plants [3]: 100%
ERYSGT percent control of the plant disease compared with untreated, inoculated plants [4]: 98%

CNC(=O)C(=NOC)c1ccccc1COc1nc(Sc2ccccc2)c(Cl)cc1Cl [Compound 10]
PHYTIN percent control of the plant disease compared with untreated, inoculated plants [1]: 96%
LEPTNO percent control of the plant disease compared with untreated, inoculated plants [2]: 98%
PUCCRT percent control of the plant disease compared with untreated, inoculated plants [3]: 100%
ERYSGT percent control of the plant disease compared with untreated, inoculated plants [4]: 99%

CNC(=O)C(=NOC)c1ccccc1COc1cccc(Sc2ccc(F)cc2)n1 [Compound 24]
PHYTIN percent control of the plant disease compared with untreated, inoculated plants [1]: 100%
LEPTNO percent control of the plant disease compared with untreated, inoculated plants [2]: 98%
PUCCRT percent control of the plant disease compared with untreated, inoculated plants [3]: 100%
ERYSGT percent control of the plant disease compared with untreated, inoculated plants [4]: 85%

CNC(=O)C(=NOC)c1ccccc1COc1cccc(Sc2ccccc2F)n1 [Compound 27]
PHYTIN percent control of the plant disease compared with untreated, inoculated plants [1]: 100%
LEPTNO percent control of the plant disease compared with untreated, inoculated plants [2]: 98%
PUCCRT percent control of the plant disease compared with untreated, inoculated plants [3]: 100%
ERYSGT percent control of the plant disease compared with untreated, inoculated plants [4]: 77%

CNC(=O)C(=NOC)c1ccccc1COc1cccc(Sc2ccccc2)n1 [Compound 14]
PHYTIN percent control of the plant disease compared with untreated, inoculated plants [1]: 100%
LEPTNO percent control of the plant disease compared with untreated, inoculated plants [2]: 89%
PUCCRT percent control of the plant disease compared with untreated, inoculated plants [3]: 100%
ERYSGT percent control of the plant disease compared with untreated, inoculated plants [4]: 92%

CNC(=O)C(=NOC)c1ccccc1COc1cccc(Sc2ccc3ccccc3c2)n1 [Compound 21]
PHYTIN percent control of the plant disease compared with untreated, inoculated plants [1]: 100%
LEPTNO percent control of the plant disease compared with untreated, inoculated plants [2]: 98%
PUCCRT percent control of the plant disease compared with untreated, inoculated plants [3]: 100%
ERYSGT percent control of the plant disease compared with untreated, inoculated plants [4]: 92%

CNC(=O)C(=NOC)c1ccccc1COc1cccc(Sc2c(C)cccc2C)n1 [Compound 26]
PHYTIN percent control of the plant disease compared with untreated, inoculated plants [1]: 100%
LEPTNO percent control of the plant disease compared with untreated, inoculated plants [2]: 89%
PUCCRT percent control of the plant disease compared with untreated, inoculated plants [3]: 98%
ERYSGT percent control of the plant disease compared with untreated, inoculated plants [4]: 69%

CNC(=O)C(=NOC)c1ccccc1COc1cccc(Sc2ccc(C)cc2)n1 [Compound 15]
PHYTIN percent control of the plant disease compared with untreated, inoculated plants [1]: 100%
LEPTNO percent control of the plant disease compared with untreated, inoculated plants [2]: 67%
PUCCRT percent control of the plant disease compared with untreated, inoculated plants [3]: 100%
ERYSGT percent control of the plant disease compared with untreated, inoculated plants [4]: 92%

Reference: patent US6559170B1, “Pyridine derivatives having fungicidal activity and processes to produce and use same” (Dow AgroScience LLC, priority 1999, dated 2003)
